The target of this test is dephosphorylated FGFR2 (Homo sapiens (Human), UniProt P21802). Nature of the test: FGFR enzyme binding assay (HTRF tracer displacement), FGFR2. The note with it: 5 nM dephosphorylated FGFR2, average of multiple determinations if made. How it is done: The potency of compounds inhibiting human isoforms of FGFR kinase was determined using Life Technologies' Homogeneous Time Resolved Fluorescence (HTRF)-based binding assay technology. […] After a 60 minute incubation at 22° C., the extent of tracer displacement was determined using a PerkinElmer EnVision multimode plate reader via HTRF dual wavelength detection, and the percent of control (POC) was calculated using a ratiometric emission factor. One hundred POC was determined using no test compound, and 0 POC was determined in the presence of 1 μM of an appropriate control inhibitor.
Sequence of dephosphorylated FGFR2 (P21802 22-821): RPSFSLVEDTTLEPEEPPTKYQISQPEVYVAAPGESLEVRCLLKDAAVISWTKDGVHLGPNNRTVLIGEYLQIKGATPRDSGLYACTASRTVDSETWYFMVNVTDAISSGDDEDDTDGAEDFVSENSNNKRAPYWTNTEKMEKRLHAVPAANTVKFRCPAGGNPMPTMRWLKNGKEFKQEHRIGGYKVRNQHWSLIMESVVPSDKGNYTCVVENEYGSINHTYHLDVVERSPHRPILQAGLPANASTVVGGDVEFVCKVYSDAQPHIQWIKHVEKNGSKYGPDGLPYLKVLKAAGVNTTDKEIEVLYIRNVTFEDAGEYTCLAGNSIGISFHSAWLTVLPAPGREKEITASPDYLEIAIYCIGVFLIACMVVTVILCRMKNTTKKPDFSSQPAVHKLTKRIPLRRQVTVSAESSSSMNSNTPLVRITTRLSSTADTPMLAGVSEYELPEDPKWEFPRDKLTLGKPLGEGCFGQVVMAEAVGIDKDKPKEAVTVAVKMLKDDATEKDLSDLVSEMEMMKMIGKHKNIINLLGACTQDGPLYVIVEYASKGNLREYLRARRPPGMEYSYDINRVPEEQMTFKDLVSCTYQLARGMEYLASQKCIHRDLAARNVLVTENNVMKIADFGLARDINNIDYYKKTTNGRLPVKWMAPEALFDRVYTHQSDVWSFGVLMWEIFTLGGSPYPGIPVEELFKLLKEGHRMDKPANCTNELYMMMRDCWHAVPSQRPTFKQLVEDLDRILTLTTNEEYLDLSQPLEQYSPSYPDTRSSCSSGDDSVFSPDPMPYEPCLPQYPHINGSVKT

Structures are written as SMILES.

Drawing on patent US12180207B2 (ARRAY BIOPHARMA INC., priority 2018, dated 2024), this text covers IC50 for 10 molecules.

In general, IC50 refers to the midpoint of a concentration-inhibition curve. High values mean weaker potency in that assay, low ones greater potency in that assay.

In turn, `COc1cc(-c2cnn(C3CCN(C(=O)C4(F)CN(C(=O)/C=C/CN(C)C)C4)CC3)c2C)cn2ncc(Cl)c12` [Example 170, (E)-1-(3-(4-(4-(3-chloro-4-methoxypyrazolo [1,5-a]pyridin-6-yl)-5-methyl-1H-pyrazol-1-yl)piperidine-1-carbonyl)-3-fluoroazetidin-1-yl)-4-(dimethylamino)but-2-en-1-one] registered an IC50 of 22 nM.

In turn, `COc1cc(-c2cnn(C3CCN(C(=O)C4CN(C(=O)C5=CCC5)C4)CC3)c2)cn2ncc(C#N)c12` [Example 137, 6-(1-(1-(1-(cyclobut-1-ene-1-carbonyl)azetidine-3-carbonyl)piperidin-4-yl)-1H-pyrazol-4-yl)-4-methoxypyrazolo[1,5-a]pyridine-3-carbonitrile] showed an IC50 of 15 nM. In the case of `COc1cc(-c2nnn(C3CCN(C(=O)C4(F)CN(C(=O)/C=C/CN(C)C)C4)CC3)c2C)cn2ncc(C#N)c12` [Example 164, (E)-6-(1-(1-(1-(4-(dimethylamino)but-2-enoyl)-3-fluoroazetidine-3-carbonyl)piperidin-4-yl)-5-methyl-1H-1,2,3-triazol-4-yl)-4-methoxypyrazolo [1,5-a]pyridine-3-carbonitrile], the IC50 was determined as 14 nM.

Molecule `C=CC(=O)N1CC(CN2CCC(n3ncc(-c4cc(OC)c5c(Cl)cnn5c4)c3C)CC2)(OC)C1` [Example 119, 1-(3-((4-(4-(3-chloro-4-methoxypyrazolo[1,5-a]pyridin-6-yl)-5-methyl-1H-pyrazol-1-yl)piperidin-1-yl)methyl)-3-methoxyazetidin-1-yl)prop-2-en-1-one] returned an IC50 of 60 nM.

`C=CC(=O)N1CC(CN2C[C@H]3C[C@@H]2CN3c2ccc(-c3cc(OC)c4c(C#N)cnn4c3)cn2)C1` [Example 108, 6-(6-((1R,4R)-5-((1-acryloylazetidin-3-yl)methyl)-2,5-diazabicyclo[2.2.1]heptan-2-yl)pyridin-3-yl)-4-methoxypyrazolo[1,5-a]pyridine-3-carbonitrile]: the IC50 is 28 nM.

In turn, `COc1cc(-c2cnn(C3CCN(C(=O)C4(F)CN(C(=O)/C=C/C(F)(F)F)C4)CC3)c2C)cn2ncc(C#N)c12` [Example 155, (E)-6-(1-(1-(3-fluoro-1-(4,4,4-trifluorobut-2-enoyl)azetidine-3-carbonyl)piperidin-4-yl)-5-methyl-1H-pyrazol-4-yl)-4-methoxypyrazolo [1,5-a]pyridine-3-carbonitrile] yielded an IC50 of 51 nM. Regarding `COc1cc(-c2cnn(C3CCN(C(=O)C4CN(C(=O)/C=C/CN5CC[C@H](F)C5)C4)CC3)c2)cn2ncc(C#N)c12` [Example 182, (S,E)-6-(1-(1-(1-(4-(3-fluoropyrrolidin-1-yl)but-2-enoyl)azetidine-3-carbonyl)piperidin-4-yl)-1H-pyrazol-4-yl)-4-methoxypyrazolo[1,5-a]pyridine-3-carbonitrile], the IC50 turned out to be 15 nM. In the case of `COc1cc(-c2cnn(C3CCN(C(=O)C4(F)CN(C(=O)/C=C/CN(C)C)C4)CC3)c2C)cn2ncc(C#N)c12` [Example 153, (E)-6-(1-(1-(1-(4-(dimethylamino)but-2-enoyl)-3-fluoroazetidine-3-carbonyl)piperidin-4-yl)-5-methyl-1H-pyrazol-4-yl)-4-methoxypyrazolo [1,5-a]pyridine-3-carbonitrile] it was 11 nM. Next, `C=CC(=O)N1CC(C(=O)N2CCC3(C2)CN(c2ccc(-c4cc(OC)c5c(C#N)cnn5c4)cn2)C3)C1` [Example 103, 6-(6-(6-(1-acryloylazetidine-3-carbonyl)-2,6-diazaspiro[3.4]octan-2-yl)pyridin-3-yl)-4-methoxypyrazolo[1,5-a]pyridine-3-carbonitrile]: 39 nM; `C=CC(=O)N1CC(C(=O)N2CC3CC(C2)N3c2ccc(-c3cc(OC)c4c(C#N)cnn4c3)cn2)C1` [Example 105, 6-(6-(3-(1-acryloylazetidine-3-carbonyl)-3,6-diazabicyclo[3.1.1]heptan-6-yl)pyridin-3-yl)-4-methoxypyrazolo[1,5-a]pyridine-3-carbonitrile]: 226 nM.
